Results: publication PMC9604400, “Synthesis, Anticancer and Antitubercular Properties of New Chalcones and Their Nitrogen-Containing Five-Membered Heterocyclic Hybrids Bearing Sulfonamide Moiety” (International Journal of Molecular Sciences, 2022)

Key:
DU-145 = assay: NCI-60 screen (SRB), prostate cancer; settings: Homo sapiens
SW-620 = assay: NCI-60 screen (SRB), colon cancer; settings: Homo sapiens
OVCAR-5 = assay: NCI-60 screen (SRB), ovarian cancer; settings: Homo sapiens
UO-31 = assay: NCI-60 screen (SRB), renal cancer; settings: Homo sapiens
SR = assay: NCI-60 screen (SRB), leukemia; settings: Homo sapiens
K-562 = assay: NCI-60 screen (SRB), leukemia; settings: Homo sapiens
UACC-62 = assay: NCI-60 screen (SRB), melanoma; settings: Homo sapiens
HL-60(TB) = assay: cells; settings: Homo sapiens
U251 = assay: NCI-60 screen (SRB), CNS cancer; settings: Homo sapiens
T-47D = assay: NCI-60 screen (SRB), breast cancer; settings: Homo sapiens, T47D
SK-MEL-28 = assay: NCI-60 screen (SRB), melanoma; settings: Homo sapiens
breast cancer cell lines = assay: NCI-60 screen (SRB), breast cancer panel; assay type: cell-based; settings: Homo sapiens, single dose 10 μM, read-out: GI (growth inhibition), range over panel
HT29 = assay: NCI-60 screen (SRB), colon cancer; settings: Homo sapiens
MOLT-4 = assay: NCI-60 screen (SRB), leukemia; settings: Homo sapiens
SF-268 = assay: NCI-60 screen (SRB), CNS cancer; settings: Homo sapiens
RPMI-8226 = assay: NCI-60 screen (SRB), leukemia; settings: Homo sapiens
[1] = tested on: 60 human cancer cell lines; assay: NCI-60 screen (SRB), whole panel; assay type: cell-based; settings: Homo sapiens
HCC-2998 = assay: NCI-60 screen (SRB), colon cancer; settings: Homo sapiens
OVCAR-8 = assay: NCI-60 screen (SRB), ovarian cancer; settings: Homo sapiens
SF-539 = assay: NCI-60 screen (SRB), CNS cancer; settings: Homo sapiens
KM12 = assay: NCI-60 screen (SRB), colon cancer; settings: Homo sapiens
A549/ATCC = assay: NCI-60 screen (SRB), non-small cell lung cancer; settings: Homo sapiens
MDA-MB-435 = assay: NCI-60 screen (SRB), melanoma; settings: Homo sapiens
LOX IMVI = assay: NCI-60 screen (SRB), melanoma; settings: Homo sapiens
SK-OV-3 = assay: NCI-60 screen (SRB), ovarian cancer; settings: Homo sapiens
CAKI-1 = assay: NCI-60 screen (SRB), renal cancer; settings: Homo sapiens
IGROV1 = assay: NCI-60 screen (SRB), ovarian cancer; settings: Homo sapiens
colon cancer cell lines = assay: NCI-60 screen (SRB), colon cancer panel; assay type: cell-based; settings: Homo sapiens, single dose 10 μM, read-out: GI (growth inhibition), range over panel
TK-10 = assay: NCI-60 screen (SRB), renal cancer; settings: Homo sapiens
leukemia cell lines = assay: NCI-60 screen (SRB), leukemia panel; assay type: cell-based; settings: Homo sapiens; leukemia panel, single dose 10 μM; read-out: GI (growth inhibition), range over panel
SN12C = assay: NCI-60 screen (SRB), renal cancer; settings: Homo sapiens
OVCAR-4 = assay: NCI-60 screen (SRB), ovarian cancer; settings: Homo sapiens
HCT-15 = assay: NCI-60 screen (SRB), colon cancer; settings: Homo sapiens
HS 578T = assay: NCI-60 screen (SRB), breast cancer; settings: Homo sapiens, Hs-578T

For `COc1cc(OC)c(S(N)(=O)=O)cc1C(=O)C=Cc1ccccc1` [Compound 17a, 5-Cinnamoyl-2,4-dimethoxybenzenesulfonamide], the IC50 (DU-145; DU-145) was 1.88 µM, the CC50 (DU-145; DU-145, read-out: LC50) was 38.1 µM and the IC50 (SW-620; SW-620) was 2.68 µM. The CC50 (SW-620; SW-620, read-out: LC50) was 48.5 µM, the IC50 (OVCAR-5; OVCAR-5) was 13.2 µM and the CC50 (OVCAR-5; OVCAR-5, read-out: LC50) was 53.7 µM. It also gave an IC50 (UO-31; UO-31) of 4.76 µM, a CC50 (UO-31; UO-31, read-out: LC50) of 43.5 µM and an IC50 (SR) of 1.73 µM. For the same compound, the CC50 (SR; read-out: LC50) was > 100 µM, the IC50 (K-562; K562) was 1.5 µM and the CC50 (K-562; K562, read-out: LC50) was > 100 µM. It also gave an IC50 (UACC-62; UACC-62) of 12.2 µM, a CC50 (UACC-62; UACC-62, read-out: LC50) of 59.4 µM and an IC50 (HL-60(TB); HL-60) of 2.27 µM. For the same compound, the CC50 (HL-60(TB); HL-60, read-out: LC50) was > 100 µM, the IC50 (U251; U-251) was 2.92 µM and the CC50 (U251; U-251, read-out: LC50) was 39.2 µM. It also gave an IC50 (T-47D) of 2.09 µM, a CC50 (T-47D; read-out: LC50) of 51.6 µM and an IC50 (SK-MEL-28; SK-MEL-28) of 12.5 µM. It also gave a CC50 (SK-MEL-28; SK-MEL-28, read-out: LC50) of 51 µM, an inhibition at 10 µM (breast cancer cell lines) of 73.5 to 100% and an IC50 (HT29; HT-29) of 4.02 µM. For the same compound, the CC50 (HT29; HT-29, read-out: LC50) was 42.5 µM, the IC50 (MOLT-4; MOLT-4) was 10.1 µM and the CC50 (MOLT-4; MOLT-4, read-out: LC50) was > 100 µM. The IC50 (SF-268; SF-268) was 5.88 µM, the CC50 (SF-268; SF-268, read-out: LC50) was 62.7 µM and the IC50 (RPMI-8226; RPMI-8226) was 2.98 µM. For the same compound, the CC50 (RPMI-8226; RPMI-8226, read-out: LC50) was > 100 µM, the IC50 ([1]; five-dose screen, read-out: IC50 values against most cell lines (range)) was 0.34 to 17.6 µM and the inhibition at 10 µM ([1]; single dose 10 μM, mean over 60 cell lines, over 100% = cell death, read-out: Mean growth inhibition (GI) percentage) was 71.8%. It also gave an IC50 (HCC-2998; HCC 2998) of 12.5 µM, a CC50 (HCC-2998; HCC 2998, read-out: LC50) of 54.7 µM and an IC50 (OVCAR-8; OVCAR-8) of 11.3 µM. For the same compound, the CC50 (OVCAR-8; OVCAR-8, read-out: LC50) was 51.3 µM, the IC50 (SF-539; SF-539) was 2.44 µM and the CC50 (SF-539; SF-539, read-out: LC50) was 30.1 µM. The IC50 (KM12; KM12) was 3.31 µM, the CC50 (KM12; KM12, read-out: LC50) was 62.3 µM and the IC50 (A549/ATCC; A549) was 10.5 µM. The CC50 (A549/ATCC; A549, read-out: LC50) was 49 µM, the IC50 (MDA-MB-435; MDA-MB-435) was 2.12 µM and the CC50 (MDA-MB-435; MDA-MB-435, read-out: LC50) was 35.9 µM. It also gave an IC50 (LOX IMVI) of 0.34 µM, a CC50 (LOX IMVI; read-out: LC50) of 41.4 µM and an IC50 (SK-OV-3; SK-OV-3) of 14.4 µM. For the same compound, the CC50 (SK-OV-3; SK-OV-3, read-out: LC50) was 52.9 µM, the IC50 (CAKI-1; CAKI-1) was 1.86 µM and the CC50 (CAKI-1; CAKI-1, read-out: LC50) was 39.5 µM. It also gave an IC50 (IGROV1; IGROV-1) of 9.74 µM, a CC50 (IGROV1; IGROV-1, read-out: LC50) of 77 µM and an inhibition at 10 µM (colon cancer cell lines) of 72.5 to 96.2%. It also gave an IC50 (TK-10; TK-10) of 12.9 µM, a CC50 (TK-10; TK-10, read-out: LC50) of 51.5 µM and an inhibition at 10 µM (leukemia cell lines) of 70.8 to 94.8%. It also gave an IC50 (SN12C) of 3.49 µM, a CC50 (SN12C; read-out: LC50) of 43.8 µM and an IC50 (OVCAR-4; OVCAR-4) of 11.8 µM. It also gave a CC50 (OVCAR-4; OVCAR-4, read-out: LC50) of 55.9 µM, an IC50 (HCT-15; HCT-15) of 3.55 µM and a CC50 (HCT-15; HCT-15, read-out: LC50) of 57.5 µM. The IC50 (HS 578T) was 5.89 µM and the CC50 (HS 578T; read-out: LC50) was > 100 µM.
